Legend:
A2B adenosine receptor = molecular target: T1, A2B adenosine receptor (Homo sapiens, UniProt P29275); experiment: cAMP assay for adenosine receptor (HTRF), HEK-A2B; assay type: cell-based; conditions: HEK-A2B cells, agonist 70 nM NECA, read-out: A2B Functional Ki
T1 construct: expressed in transfected cells; host or cells: HEK-293 (HEK-A2B)
T1 sequence (P29275 1-332): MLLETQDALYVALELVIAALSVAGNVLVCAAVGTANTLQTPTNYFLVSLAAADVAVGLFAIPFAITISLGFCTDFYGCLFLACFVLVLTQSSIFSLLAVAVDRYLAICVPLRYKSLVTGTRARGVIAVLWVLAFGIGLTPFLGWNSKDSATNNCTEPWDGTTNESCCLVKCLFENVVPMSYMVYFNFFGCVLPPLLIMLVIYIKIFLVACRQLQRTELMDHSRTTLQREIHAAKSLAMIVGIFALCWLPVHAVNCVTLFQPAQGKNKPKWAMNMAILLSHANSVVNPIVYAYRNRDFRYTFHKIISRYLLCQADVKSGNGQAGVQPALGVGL
Description: (§1) cAMP Assay for Adenosine Receptor.
(§2) The functional activity of test compounds on A2A and A2B adenosine receptors and selectivity over A1 adenosine was determined using HTRF based cAMP assay (Cisbio). Briefly, overnight seeded cultures (HEK-A1, HEK-A2A, HEK-A2B) were treated with 1U/ml ADA for 90 minutes at 37° C. and 5% CO2. Cell suspensions were treated with increasing concentrations of test compounds for 15 minutes followed by treatment with agonists for 15 minutes (1 nM CPA for HEK-A1 and 70 nM NECA for HEK-A2B) or 30 min (10 nM CGS-21680 for HEK-A2A) at room temperature with continuous mixing in incomplete DMEM supplemented with 1U/ml ADA. Rolipram (20 μM) was included in the assay for A1 and A2A adenosine receptors. For functional activity of HEK-A1, cell suspensions were further treated with forskolin for 30 minutes at room temperature with constant mixing. cAMP levels were quantified using a Flex Station III (Molecular Devices) at an excitation maximum of 313 nm and emission maxima of 620 nm and 665 nm. Data was analyzed using GraphPad Prism to generate IC50 and Ki. The biological activity data is provided in the Table below. <10 nM are represented as ++++, 10-30 nM as +++, 30-100 nM ++ and the K, value >100 nM as +.

A2A adenosine receptor = molecular target: T2, A2A adenosine receptor (Homo sapiens, UniProt P29274); experiment: cAMP assay for adenosine receptor (HTRF), HEK-A2A; assay type: cell-based; conditions: HEK-A2A cells, agonist 10 nM CGS-21680, Rolipram 20 μM, read-out: A2A Functional Ki
T2 construct: expressed in transfected cells; host or cells: HEK-293 (HEK-A2A)
T2 sequence (P29274 whole entry): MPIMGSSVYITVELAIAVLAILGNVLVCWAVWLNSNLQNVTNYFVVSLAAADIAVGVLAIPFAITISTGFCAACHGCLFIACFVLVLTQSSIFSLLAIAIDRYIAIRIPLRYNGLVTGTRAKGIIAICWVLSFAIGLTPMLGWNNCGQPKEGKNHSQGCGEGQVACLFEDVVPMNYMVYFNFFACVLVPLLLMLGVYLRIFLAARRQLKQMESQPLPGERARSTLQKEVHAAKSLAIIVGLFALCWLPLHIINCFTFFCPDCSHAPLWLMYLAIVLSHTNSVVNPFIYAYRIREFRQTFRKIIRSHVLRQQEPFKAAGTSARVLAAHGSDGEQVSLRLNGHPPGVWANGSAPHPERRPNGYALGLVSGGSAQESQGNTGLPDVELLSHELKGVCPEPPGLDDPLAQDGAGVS
Description: as §1, §2

Ki (A2B adenosine receptor) [nM]	Ki (A2A adenosine receptor) [nM]	SMILES
< 10	10 to 30	CCCn1c(=O)c2[nH]c(-c3cnn(CC(C)C)c3)nc2n2ccnc12 [Example B17, 2-(1-isobutylpyrazol-4-yl)-5-propyl-3H-imidazo[2,1-b]purin-4-one]
< 10	< 10	CCCn1c(=O)c2[nH]c(-c3cnn(Cc4cccc(CO)c4)c3)nc2n2ccnc12 [Example E1, 2-[1-[[3-(hydroxymethyl)phenyl]methyl]pyrazol-4-yl]-5-propyl-3H-imidazo[2,1-b]purin-4-one]
< 10	10 to 30	CCCn1c(=O)c2[nH]c(-c3cnn(Cc4cccc(C(=O)O)c4)c3)nc2n2ccnc12 [Example G1, 3-[[4-(4-oxo-5-propyl-3H-imidazo[2,1-b]purin-2-yl)pyrazol-1-yl]methyl]benzoic Acid]
< 10	< 10	CCCn1c(=O)c2[nH]c(-c3cnn(CC(C)(C)C)c3)nc2n2ccnc12 [Example B19, 2-[1-(2,2-dimethylpropyl)pyrazol-4-yl]-5-propyl-3H-imidazo[2,1-b]purin-4-one]
< 10	< 10	CCCn1cc(-c2nc3c([nH]2)c(=O)n(CCC)c2nccn32)cn1 [Example B13, 5-propyl-2-(1-propylpyrazol-4-yl)-3H-imidazo[2,1-b]purin-4-one]
30 to 100	30 to 100	CCCn1c(=O)c2[nH]c(-c3cnn(CC(O)CO)c3)nc2n2ccnc12 (stereo not shown) [Example J1, 2-[1-(2,3-dihydroxypropyl)pyrazol-4-yl]-5-propyl-3H-imidazo[2,1-b]purin-4-one]
< 10	< 10	CCCn1c(=O)c2[nH]c(-c3cnn(C(C)CC)c3)nc2n2ccnc12 (stereo not shown) [Example B20, 5-propyl-2-(1-sec-butylpyrazol-4-yl)-3H-imidazo[2,1-b]purin-4-one]
< 10	< 10	CCCn1c(=O)c2[nH]c(-c3cnn(C(C)(C)CC)c3)nc2n2ccnc12 [Example A7, 2-[1-(1,1-dimethylpropyl)pyrazol-4-yl]-5-propyl-3H-imidazo[2,1-b]purin-4-one]
30 to 100	> 100	CCCn1c(=O)c2[nH]c(-c3cnn(CC(=O)O)c3)nc2n2ccnc12 [Example H1, 2-[4-(4-oxo-5-propyl-3H-imidazo[2,1-b]purin-2-yl)pyrazol-1-yl]acetic acid]
–	30 to 100	CCCn1c(=O)c2[nH]c(-c3cnn(CCc4cccc(F)c4)c3)nc2n2ccnc12 [Example A5, 2-[1-[2-(3-fluorophenyl)ethyl]pyrazol-4-yl]-5-propyl-3H-imidazo[2,1-b]purin-4-one]
< 10	< 10	CCCn1c(=O)c2[nH]c(-c3cnn(Cc4cccc(C(F)(F)F)c4)c3)nc2n2ccnc12 [Example A1, 5-propyl-2-[1-[[3-(trifluoromethyl)phenyl]methyl]pyrazol-4-yl]-3H-imidazo[2,1-b]purin-4-one]
< 10	10 to 30	Cn1c(=O)c2[nH]c(-c3cnn(Cc4cccc(C(F)(F)F)c4)c3)nc2n2ccnc12 [Example A3, 5-methyl-2-[1-[[3-(trifluoromethyl)phenyl]methyl]pyrazol-4-yl]-3H-imidazo[2,1-b]purin-4-one]
< 10	< 10	CCCn1c(=O)c2[nH]c(-c3cnn(Cc4cccc(C#N)c4)c3)nc2n2ccnc12 [Example B7, 3-[[4-(4-oxo-5-propyl-3H-imidazo[2,1-b]purin-2-yl)pyrazol-1-yl]methyl]benzonitrile]
< 10	> 100	CCCn1c(=O)c2[nH]c(-c3cnn(CC(=O)N(C)C)c3)nc2n2ccnc12 [Example B14, N,N-dimethyl-2-[4-(4-oxo-5-propyl-3H-imidazo[2,1-b]purin-2-yl)pyrazol-1-yl]acetamide]
< 10	10 to 30	CCCn1c(=O)c2[nH]c(-c3cnn(CC#Cc4cccc(OC(F)(F)F)c4)c3)nc2n2ccnc12 [Example B3, 5-propyl-2-[1-[3-[3-(trifluoromethoxy)phenyl]prop-2-ynyl]pyrazol-4-yl]-3H-imidazo[2,1-b]purin-4-one]
< 10	10 to 30	CCCn1c(=O)c2[nH]c(-c3cnn(CC#Cc4cccc(C(=O)OCC)c4)c3)nc2n2ccnc12 [Example B2, Ethyl 3-[3-[4-(4-oxo-5-propyl-3H-imidazo[2,1-b]purin-2-yl)pyrazol-1-yl]prop-1-ynyl]benzoate]
< 10	10 to 30	CCCn1c(=O)c2[nH]c(-c3cnn(Cc4cccc(C(C)(C)O)c4)c3)nc2n2ccnc12 [Example F1, 2-[1-[[3-(1-hydroxy-1-methyl-ethyl)phenyl]methyl]pyrazol-4-yl]-5-propyl-3H-imidazo[2,1-b]purin-4-one]
10 to 30	> 100	CCCn1c(=O)c2[nH]c(-c3cnn(CCOC)c3)nc2n2ccnc12 [Example B11, 2-[1-(2-methoxyethyl)pyrazol-4-yl]-5-propyl-3H-imidazo[2,1-b]purin-4-one]
< 10	30 to 100	CCCn1c(=O)c2[nH]c(-c3cnn(CC4CC(=O)N(c5cncc(C(F)(F)F)c5)C4)c3)nc2n2ccnc12 (stereo not shown) [Example C2, 2-[1-[[5-oxo-1-[5-(trifluoromethyl)-3-pyridyl]pyrrolidin-3-yl]methyl]pyrazol-4-yl]-5-propyl-3H-imidazo[2,1-b]purin-4-one]
< 10	30 to 100	CCCn1c(=O)c2[nH]c(-c3cnn(CC#Cc4cc(C(=O)OCC)ccc4C)c3)nc2n2ccnc12 [Example B6, Ethyl 4-methyl-3-[3-[4-(4-oxo-5-propyl-3H-imidazo[2,1-b]purin-2-yl)pyrazol-1-yl]prop-1-ynyl]benzoate]
< 10	10 to 30	CCCn1c(=O)c2[nH]c(-c3cnn(C(C)C)c3)nc2n2ccnc12 [Example B8, 2-(1-isopropylpyrazol-4-yl)-5-propyl-3H-imidazo[2,1-b]purin-4-one]
–	> 100	CCCn1c(=O)c2[nH]c(-c3cnn(C)c3)nc2n2ccnc12 [Example A6, 2-(1-methylpyrazol-4-yl)-5-propyl-3H-imidazo[2,1-b]purin-4-one]
< 10	< 10	CCCn1c(=O)c2[nH]c(-c3cnn(CC4CCC4)c3)nc2n2ccnc12 [Example B16, 2-[1-(cyclobutylmethyl)pyrazol-4-yl]-5-propyl-3H-imidazo[2,1-b]purin-4-one]
< 10	30 to 100	CCCn1c(=O)c2[nH]c(-c3cnn(CCN4CCCCC4)c3)nc2n2ccnc12 [Example D1, 2-[1-[2-(1-piperidyl)ethyl]pyrazol-4-yl]-5-propyl-3H-imidazo[2,1-b]purin-4-one]
10 to 30	> 100	CCCn1c(=O)c2[nH]c(-c3cnn(CCN(C)C)c3)nc2n2ccnc12 [Example B12, 2-[1-(2-dimethylaminoethyl)pyrazol-4-yl]-5-propyl-3H-imidazo[2,1-b]purin-4-one]
< 10	10 to 30	CCCCn1cc(-c2nc3c([nH]2)c(=O)n(CCC)c2nccn32)cn1 [Example B9, 2-(1-butylpyrazol-4-yl)-5-propyl-3H-imidazo[2,1-b]purin-4-one]
< 10	10 to 30	CCCn1c(=O)c2[nH]c(-c3cnn(CC)c3)nc2n2ccnc12 [Example B10, 2-(1-ethylpyrazol-4-yl)-5-propyl-3H-imidazo[2,1-b]purin-4-one]

Source: patent US11981679B2, “Tricyclic compounds, compositions and medicinal applications thereof” (IMPETIS BIOSCIENCES LTD., priority 2018, dated 2024)
